Columns and labels:
Assay in all cases: SelectScreen, TR FRET
DAPK1 (human) = DAPK1 (human) (UniProt P53355)
NTRK1 (human) = NTRK1 (human) (UniProt P04629)
PRKACA (human) = PRKACA (human) (UniProt P17612)
SPHK1 (human) = SPHK1 (human) (UniProt Q9NYA1)
CSF1R (human) = CSF1R (human) (UniProt P07333)
JAK3 JH1 JH2 (human) = JAK3 JH1 JH2 (human) (UniProt P52333)
CDK2 CCNA2 (human) = CDK2 CCNA2 (human) (UniProt P24941+P20248)
EPHA3 (human) = EPHA3 (human) (UniProt P29320)
CHEK2 (human) = CHEK2 (human) (UniProt O96017)
DYRK1A (human) = DYRK1A (human) (UniProt Q13627)
CLK2 (human) = CLK2 (human) (UniProt P49760)
ROCK1 (human) = ROCK1 (human) (UniProt Q13464)
CDK7 CCNH MNAT1 (human) = CDK7 CCNH MNAT1 (human) (UniProt P50613+P51948+P51946)
NEK6 (human) = NEK6 (human) (UniProt Q9HC98)
Chain of NEK6 (human) (Q9HC98 whole entry, looked up): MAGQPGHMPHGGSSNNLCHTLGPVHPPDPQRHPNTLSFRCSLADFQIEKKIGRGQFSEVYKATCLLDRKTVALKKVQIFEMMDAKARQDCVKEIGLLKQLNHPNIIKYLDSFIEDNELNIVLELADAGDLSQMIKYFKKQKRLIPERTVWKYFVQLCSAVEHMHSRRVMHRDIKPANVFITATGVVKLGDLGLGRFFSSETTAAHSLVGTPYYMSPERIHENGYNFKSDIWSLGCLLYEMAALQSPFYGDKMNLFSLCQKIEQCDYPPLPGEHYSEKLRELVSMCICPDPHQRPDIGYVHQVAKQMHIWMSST

LCK (human) = LCK (human) (UniProt P06239)
EPHA8 (human) = EPHA8 (human) (UniProt P29322)
Chain of EPHA8 (human) (P29322 whole entry, looked up): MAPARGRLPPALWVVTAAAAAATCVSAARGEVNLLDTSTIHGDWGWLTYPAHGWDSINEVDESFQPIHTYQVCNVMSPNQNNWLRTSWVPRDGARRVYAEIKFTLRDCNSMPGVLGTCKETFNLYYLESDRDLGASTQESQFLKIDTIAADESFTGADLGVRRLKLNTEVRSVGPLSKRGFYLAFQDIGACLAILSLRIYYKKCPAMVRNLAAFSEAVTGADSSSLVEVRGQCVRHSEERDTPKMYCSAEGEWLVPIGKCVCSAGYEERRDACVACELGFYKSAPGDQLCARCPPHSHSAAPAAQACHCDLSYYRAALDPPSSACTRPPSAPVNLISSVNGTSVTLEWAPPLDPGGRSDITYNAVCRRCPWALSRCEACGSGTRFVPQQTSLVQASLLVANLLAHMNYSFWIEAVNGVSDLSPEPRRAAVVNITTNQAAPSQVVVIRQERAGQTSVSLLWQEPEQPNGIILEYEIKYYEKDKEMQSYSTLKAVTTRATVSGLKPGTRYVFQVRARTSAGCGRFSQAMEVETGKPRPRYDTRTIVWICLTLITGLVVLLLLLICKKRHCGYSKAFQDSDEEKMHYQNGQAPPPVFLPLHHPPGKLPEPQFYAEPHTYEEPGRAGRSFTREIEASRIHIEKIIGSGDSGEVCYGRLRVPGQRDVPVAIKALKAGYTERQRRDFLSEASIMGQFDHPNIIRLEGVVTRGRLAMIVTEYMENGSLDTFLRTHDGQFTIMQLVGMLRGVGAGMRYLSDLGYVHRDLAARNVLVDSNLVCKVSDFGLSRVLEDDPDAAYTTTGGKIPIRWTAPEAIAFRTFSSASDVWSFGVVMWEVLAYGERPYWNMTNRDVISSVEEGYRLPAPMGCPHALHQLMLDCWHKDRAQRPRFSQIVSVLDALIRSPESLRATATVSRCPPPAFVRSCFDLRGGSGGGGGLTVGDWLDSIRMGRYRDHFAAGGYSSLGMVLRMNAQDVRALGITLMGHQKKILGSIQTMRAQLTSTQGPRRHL

CDK9 CCNT1 (human) = CDK9 CCNT1 (human) (UniProt O60563+P50750)
JAK2 JH1 JH2 (human) = JAK2 JH1 JH2 (human) (UniProt O60674)
MAPK8 (human) = MAPK8 (human) (UniProt P45983)
Chain of MAPK8 (human) (P45983 whole entry, looked up): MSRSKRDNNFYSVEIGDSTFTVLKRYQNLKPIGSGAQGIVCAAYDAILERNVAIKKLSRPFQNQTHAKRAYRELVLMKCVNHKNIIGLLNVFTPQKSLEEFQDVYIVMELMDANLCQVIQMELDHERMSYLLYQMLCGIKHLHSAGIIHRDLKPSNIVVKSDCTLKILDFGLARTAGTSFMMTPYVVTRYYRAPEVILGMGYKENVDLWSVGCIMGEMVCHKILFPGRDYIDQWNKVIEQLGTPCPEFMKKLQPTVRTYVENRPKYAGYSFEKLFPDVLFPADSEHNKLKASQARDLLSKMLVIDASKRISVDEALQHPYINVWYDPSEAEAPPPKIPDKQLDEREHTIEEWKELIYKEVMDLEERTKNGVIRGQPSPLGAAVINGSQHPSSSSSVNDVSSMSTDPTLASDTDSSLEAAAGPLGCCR

CDK5 CDK5R1 p25 (human) = CDK5 CDK5R1 p25 (human) (UniProt Q15078+Q00535)
TEK (human) = TEK (human) (UniProt Q02763)
ROCK2 (human) = ROCK2 (human) (UniProt O75116)
CSNK2A1 (human) = CSNK2A1 (human) (UniProt P68400)
RPS6KB1 (human) = RPS6KB1 (human) (UniProt P23443)
Chain of RPS6KB1 (human) (P23443 whole entry, looked up): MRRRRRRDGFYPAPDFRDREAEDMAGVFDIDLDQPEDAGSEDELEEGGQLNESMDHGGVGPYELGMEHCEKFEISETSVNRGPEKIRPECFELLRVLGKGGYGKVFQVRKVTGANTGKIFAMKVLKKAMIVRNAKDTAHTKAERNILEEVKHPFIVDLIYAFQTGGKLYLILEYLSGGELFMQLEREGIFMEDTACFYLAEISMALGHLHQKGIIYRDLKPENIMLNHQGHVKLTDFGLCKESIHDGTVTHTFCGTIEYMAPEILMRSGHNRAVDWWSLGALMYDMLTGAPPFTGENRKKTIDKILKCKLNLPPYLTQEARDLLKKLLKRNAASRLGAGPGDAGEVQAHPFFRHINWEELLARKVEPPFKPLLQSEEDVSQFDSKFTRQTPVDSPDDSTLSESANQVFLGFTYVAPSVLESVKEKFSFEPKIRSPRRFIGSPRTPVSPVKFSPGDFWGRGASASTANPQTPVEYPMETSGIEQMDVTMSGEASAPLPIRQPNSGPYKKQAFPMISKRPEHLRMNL

TYK2 JH1 JH2 (human) = TYK2 JH1 JH2 (human) (UniProt P29597)
PKN1 (human) = PKN1 (human) (UniProt Q16512)
Chain of PKN1 (human) (Q16512 whole entry, looked up): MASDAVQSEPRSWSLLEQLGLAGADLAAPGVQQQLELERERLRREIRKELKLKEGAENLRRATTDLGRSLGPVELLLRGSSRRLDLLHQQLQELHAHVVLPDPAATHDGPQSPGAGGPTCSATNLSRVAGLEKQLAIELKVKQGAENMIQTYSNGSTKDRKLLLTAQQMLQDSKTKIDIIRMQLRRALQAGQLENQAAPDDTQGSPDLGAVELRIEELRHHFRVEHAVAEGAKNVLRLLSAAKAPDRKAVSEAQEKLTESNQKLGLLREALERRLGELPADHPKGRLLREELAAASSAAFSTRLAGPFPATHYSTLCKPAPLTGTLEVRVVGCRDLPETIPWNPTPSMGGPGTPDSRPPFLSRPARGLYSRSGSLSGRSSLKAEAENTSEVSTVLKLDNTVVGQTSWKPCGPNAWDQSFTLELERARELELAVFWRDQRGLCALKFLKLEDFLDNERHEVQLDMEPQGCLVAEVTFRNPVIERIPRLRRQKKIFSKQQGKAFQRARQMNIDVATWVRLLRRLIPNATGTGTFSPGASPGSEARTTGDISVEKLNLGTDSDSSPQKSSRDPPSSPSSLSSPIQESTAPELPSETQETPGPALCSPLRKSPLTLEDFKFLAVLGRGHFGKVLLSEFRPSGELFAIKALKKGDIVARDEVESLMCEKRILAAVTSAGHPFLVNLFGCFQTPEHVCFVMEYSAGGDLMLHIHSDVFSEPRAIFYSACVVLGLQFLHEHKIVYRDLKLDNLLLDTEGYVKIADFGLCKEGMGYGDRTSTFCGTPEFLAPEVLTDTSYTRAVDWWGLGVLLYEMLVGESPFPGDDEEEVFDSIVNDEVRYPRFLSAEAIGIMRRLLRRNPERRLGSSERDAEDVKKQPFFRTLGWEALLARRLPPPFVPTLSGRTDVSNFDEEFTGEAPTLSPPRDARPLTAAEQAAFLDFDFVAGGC

[1] = tested on: RAF1 (human), P04049 [Y340D/Y341D]
Chain of RAF1 (human), P04049 [Y340D/Y341D] (P04049 whole entry Y340D/Y341D, looked up): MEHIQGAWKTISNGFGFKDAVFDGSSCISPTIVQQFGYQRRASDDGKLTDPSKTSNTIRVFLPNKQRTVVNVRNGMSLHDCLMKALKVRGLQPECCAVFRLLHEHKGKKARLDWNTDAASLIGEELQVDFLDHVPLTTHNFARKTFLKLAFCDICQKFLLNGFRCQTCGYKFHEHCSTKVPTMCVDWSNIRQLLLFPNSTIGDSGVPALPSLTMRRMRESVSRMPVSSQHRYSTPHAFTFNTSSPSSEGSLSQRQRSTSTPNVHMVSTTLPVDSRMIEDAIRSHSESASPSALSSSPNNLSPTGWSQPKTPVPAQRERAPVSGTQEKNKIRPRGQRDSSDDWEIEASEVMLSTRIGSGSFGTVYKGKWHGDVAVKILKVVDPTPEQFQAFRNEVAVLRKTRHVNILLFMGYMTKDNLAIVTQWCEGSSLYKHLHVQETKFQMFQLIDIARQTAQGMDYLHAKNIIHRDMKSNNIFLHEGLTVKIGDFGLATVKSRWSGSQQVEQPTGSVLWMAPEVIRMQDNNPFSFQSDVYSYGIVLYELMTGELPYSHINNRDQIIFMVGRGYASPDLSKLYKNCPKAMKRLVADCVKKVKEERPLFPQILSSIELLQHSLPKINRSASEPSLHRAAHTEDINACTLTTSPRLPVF

MAPKAPK5 (human) = MAPKAPK5 (human) (UniProt Q8IW41)

Chain of EPHA3 (human) (P29320 whole entry, looked up): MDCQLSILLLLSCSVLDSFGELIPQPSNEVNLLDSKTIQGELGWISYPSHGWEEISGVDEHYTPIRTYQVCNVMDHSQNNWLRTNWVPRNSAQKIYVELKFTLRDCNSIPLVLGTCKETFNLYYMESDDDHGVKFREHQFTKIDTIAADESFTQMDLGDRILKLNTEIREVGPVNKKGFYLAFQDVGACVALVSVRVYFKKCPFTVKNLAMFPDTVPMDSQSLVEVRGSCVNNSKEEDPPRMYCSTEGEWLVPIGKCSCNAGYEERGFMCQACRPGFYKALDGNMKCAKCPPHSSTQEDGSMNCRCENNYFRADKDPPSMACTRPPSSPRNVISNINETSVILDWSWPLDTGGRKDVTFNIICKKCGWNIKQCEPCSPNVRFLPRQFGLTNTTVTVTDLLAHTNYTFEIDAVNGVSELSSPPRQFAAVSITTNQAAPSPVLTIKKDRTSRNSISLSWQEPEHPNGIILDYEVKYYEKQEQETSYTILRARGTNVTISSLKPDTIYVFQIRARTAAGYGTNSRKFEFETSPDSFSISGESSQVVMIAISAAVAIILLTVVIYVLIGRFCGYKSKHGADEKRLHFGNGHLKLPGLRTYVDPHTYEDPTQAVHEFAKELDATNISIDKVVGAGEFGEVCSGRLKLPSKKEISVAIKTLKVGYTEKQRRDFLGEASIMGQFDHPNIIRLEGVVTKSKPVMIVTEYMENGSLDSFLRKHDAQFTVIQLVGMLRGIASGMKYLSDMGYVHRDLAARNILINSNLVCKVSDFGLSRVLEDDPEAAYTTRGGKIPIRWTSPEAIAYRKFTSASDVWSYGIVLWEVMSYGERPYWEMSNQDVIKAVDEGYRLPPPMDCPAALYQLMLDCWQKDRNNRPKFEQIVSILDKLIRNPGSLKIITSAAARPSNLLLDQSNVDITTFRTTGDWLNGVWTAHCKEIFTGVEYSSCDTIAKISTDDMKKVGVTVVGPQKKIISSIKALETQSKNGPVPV

## Cn1cc(-c2cnc3ccc4ccc(CC(=O)NCc5ccccn5)cc4c(=O)c3c2)cn1
DAPK1 (human); compound 0.1 µM
  inhibition: 21.9%
DAPK1 (human); compound 1.0 µM
  inhibition: 2.1%
DAPK1 (human); compound 10.0 µM
  inhibition: 14.5%
NTRK1 (human); compound 0.1 µM
  inhibition: 18.9%
NTRK1 (human); compound 1.0 µM
  inhibition: 37.2%
NTRK1 (human); compound 10.0 µM
  inhibition: 68.9%
PRKACA (human); compound 0.1 µM
  inhibition: 6.3%
PRKACA (human); compound 1.0 µM
  inhibition: 7.7%
PRKACA (human); compound 10.0 µM
  inhibition: 9.5%
SPHK1 (human); compound 0.1 µM
  inhibition: -3.4%
SPHK1 (human); compound 1.0 µM
  inhibition: -4.1%
SPHK1 (human); compound 10.0 µM
  inhibition: -2.1%
CSF1R (human); compound 0.1 µM
  inhibition: 15.7%
CSF1R (human); compound 1.0 µM
  inhibition: 25.8%
CSF1R (human); compound 10.0 µM
  inhibition: 58.3%
JAK3 JH1 JH2 (human); compound 0.1 µM
  inhibition: 9.3%
JAK3 JH1 JH2 (human); compound 1.0 µM
  inhibition: 6.1%
JAK3 JH1 JH2 (human); compound 10.0 µM
  inhibition: 25.6%
CDK2 CCNA2 (human); compound 0.1 µM
  inhibition: 17%
CDK2 CCNA2 (human); compound 1.0 µM
  inhibition: 18.6%
CDK2 CCNA2 (human); compound 10.0 µM
  inhibition: 18.3%
EPHA3 (human); compound 0.1 µM
  inhibition: -1.7%
EPHA3 (human); compound 1.0 µM
  inhibition: 5.2%
EPHA3 (human); compound 10.0 µM
  inhibition: 16.4%
CHEK2 (human); compound 0.1 µM
  inhibition: 11.8%
CHEK2 (human); compound 1.0 µM
  inhibition: 17.1%
CHEK2 (human); compound 10.0 µM
  inhibition: 43.6%
DYRK1A (human); compound 0.1 µM
  inhibition: 10.7%
DYRK1A (human); compound 1.0 µM
  inhibition: 33.3%
DYRK1A (human); compound 10.0 µM
  inhibition: 79%
CLK2 (human); compound 0.1 µM
  inhibition: 9.2%
CLK2 (human); compound 1.0 µM
  inhibition: 22.8%
CLK2 (human); compound 10.0 µM
  inhibition: 69.8%
ROCK1 (human); compound 0.1 µM
  inhibition: 0%
ROCK1 (human); compound 1.0 µM
  inhibition: 2.5%
ROCK1 (human); compound 10.0 µM
  inhibition: 10.9%
CDK7 CCNH MNAT1 (human); compound 0.1 µM
  inhibition: 1%
CDK7 CCNH MNAT1 (human); compound 1.0 µM
  inhibition: 6.4%
CDK7 CCNH MNAT1 (human); compound 10.0 µM
  inhibition: 11.8%
NEK6 (human); compound 0.1 µM
  inhibition: 5.2%
NEK6 (human); compound 1.0 µM
  inhibition: -7.4%
NEK6 (human); compound 10.0 µM
  inhibition: 9.6%
LCK (human); compound 0.1 µM
  inhibition: 27.2%
LCK (human); compound 1.0 µM
  inhibition: 37.9%
LCK (human); compound 10.0 µM
  inhibition: 77.3%
EPHA8 (human); compound 0.1 µM
  inhibition: 5.4%
EPHA8 (human); compound 1.0 µM
  inhibition: 6.4%
EPHA8 (human); compound 10.0 µM
  inhibition: 24.3%
CDK9 CCNT1 (human); compound 0.1 µM
  inhibition: 9.4%
CDK9 CCNT1 (human); compound 1.0 µM
  inhibition: 4.4%
CDK9 CCNT1 (human); compound 10.0 µM
  inhibition: 10.8%
JAK2 JH1 JH2 (human); compound 0.1 µM
  inhibition: 4.4%
JAK2 JH1 JH2 (human); compound 1.0 µM
  inhibition: 12.5%
JAK2 JH1 JH2 (human); compound 10.0 µM
  inhibition: 41%
MAPK8 (human); compound 0.1 µM
  inhibition: 2.8%
MAPK8 (human); compound 1.0 µM
  inhibition: 0.1%
MAPK8 (human); compound 10.0 µM
  inhibition: 6.2%
CDK5 CDK5R1 p25 (human); compound 0.1 µM
  inhibition: 6.6%
CDK5 CDK5R1 p25 (human); compound 1.0 µM
  inhibition: 6.7%
CDK5 CDK5R1 p25 (human); compound 10.0 µM
  inhibition: 14.5%
TEK (human); compound 0.1 µM
  inhibition: -0.9%
TEK (human); compound 1.0 µM
  inhibition: 4.6%
TEK (human); compound 10.0 µM
  inhibition: 45.3%
ROCK2 (human); compound 0.1 µM
  inhibition: -1.9%
ROCK2 (human); compound 1.0 µM
  inhibition: -0.2%
ROCK2 (human); compound 10.0 µM
  inhibition: -5.8%
CSNK2A1 (human); compound 0.1 µM
  inhibition: 8.2%
CSNK2A1 (human); compound 1.0 µM
  inhibition: 9.2%
CSNK2A1 (human); compound 10.0 µM
  inhibition: 10.2%
RPS6KB1 (human); compound 0.1 µM
  inhibition: 5.5%
RPS6KB1 (human); compound 1.0 µM
  inhibition: 19.7%
RPS6KB1 (human); compound 10.0 µM
  inhibition: 25.1%
TYK2 JH1 JH2 (human); compound 0.1 µM
  inhibition: 5.1%
TYK2 JH1 JH2 (human); compound 1.0 µM
  inhibition: 8%
TYK2 JH1 JH2 (human); compound 10.0 µM
  inhibition: 23.7%
PKN1 (human); compound 0.1 µM
  inhibition: 12.2%
PKN1 (human); compound 1.0 µM
  inhibition: 13.6%
PKN1 (human); compound 10.0 µM
  inhibition: -14.2%
[1]; compound 0.1 µM
  inhibition: 26.2%
[1]; compound 1.0 µM
  inhibition: 25.4%
[1]; compound 10.0 µM
  inhibition: 7%
MAPKAPK5 (human); compound 0.1 µM
  inhibition: 5.2%
MAPKAPK5 (human); compound 1.0 µM
  inhibition: 6.7%
MAPKAPK5 (human); compound 10.0 µM
  inhibition: 7.9%
